Non-standard residues stand in square brackets, D forms with d. Residues, ends and D or L forms follow the SMILES beside them. No end group written: not given here. 1Nal = N[C@@H](Cc1cccc2ccccc12)C(=O)O; Aib = CC(C)(N)C(=O)O
Legend:
[1] = Lipid binding by fluorescence spectroscopy; details: Ri 0 (buffer, no lipids), 2 μM
Protocol: The lipid binding properties of the peptides synthesized in Section 6, supra, were tested by fluorescence measurements with labeled peptides, in the present case Tryptophane (Trp or W) or Naphtylalanine (Nal). The fluorescence spectra were recorded on a Fluoromax from Spex (Jobin-Yvon) equipped with a Xenon lamp of 150 W, two monochromators (excitation and emission), a photomultiplier R-928 for detection sensitive in the red up to 850 nm and a thermoelectric magnetic stirred cell holder. Quartz Suprasil cuvettes were used for measurements in the micromolar concentration range. A device of variable slits (from 0.4 to 5 nm) allows modulation of the incident and emitted intensities according to the concentration of peptide used. The reported values are in general the average of between 2 to 4 spectra. The peptide concentration is determined by absorption spectrometry on a Philips PU 8800 using the absorption band of the Trp (ε280 nm=5,550 M^−1 cm^−1 in Tris buffer) or the Nal (ε224 nm =92,770 M^−1 cm^−1 in methanol)
Fluorescence spectra of the peptides were recorded between 290 nm and 450 nm in Tris-HCl buffer (20 mM, pH=7.5), in the presence and absence of lipidic vesicles. The small unilamellar vesicles were formed after rehydration in buffer of the lyophilized phospholipids, dispersion and tip sonification under a N2 stream. The lipids used were either Egg PC/Chol. (20:1) or POPC/Chol. (20:1). The spectra were recorded at a peptide concentration of 2 μM and at a temperature of 37° C. The fluorescence reference standard in the case of Trp was N-acetyltryptophanylamide (NATA).
Lipid binding studies were done through progressive lipidic vesicle addition to the peptide in solution at 2 μM (slits: 5 nm in excitation and 1.5 nm in emission). Dilution effects were taken into account for the fluorescence intensity determination. The lipid concentrations were varied from 10 to 600 μM and the molar ratio of lipid to peptide (Ri) was varied from 5 to 300. The wavelength of excitation was set at 280 nm for both Trp and Nal.
The data were directly recorded and treated by an IBM-PC linked to the spectrofluorimeter through the DM3000F software from Spex. The spectra were corrected by substraction of the solvent contribution and by application of a coefficient given by the constructor taking into account the variation of the photomultiplier response versus the wavelength.
The fluorescence spectra of the peptides were characterized by the wavelength at their maximum of fluorescence emission and by their quantum yield compared to NATA in the case of peptides labeled with a tryptophane. The process of binding to lipids was analyzed by calculating the shift of the wavelength at the maximum of fluorescence emission, (λmax), and the variation of the relative fluorescence intensity of emission versus the lipid concentration. The relative fluorescence intensity is defined as the following ratio: (I-I0)λmax/I0λmax. I and I0 are both measured at the (λmax) corresponding to the initial free state of the peptide, i.e., without lipids. I is the intensity at a defined lipid to peptide ratio and I0 is the same parameter measured in absence of lipids. The absence of these variations is relevant of the absence of interactions of the peptides with the lipids.

[2] = target: T1, LCAT (purified from human plasma) (Homo sapiens, UniProt P04180); assay: LCAT activation assay; type: biochemical; details: LCAT activation as compared with native human ApoA-I (= 100%), equivalent masses
T1 construct: from tissue; host or cells: human plasma
T1 sequence (P04180 25-440): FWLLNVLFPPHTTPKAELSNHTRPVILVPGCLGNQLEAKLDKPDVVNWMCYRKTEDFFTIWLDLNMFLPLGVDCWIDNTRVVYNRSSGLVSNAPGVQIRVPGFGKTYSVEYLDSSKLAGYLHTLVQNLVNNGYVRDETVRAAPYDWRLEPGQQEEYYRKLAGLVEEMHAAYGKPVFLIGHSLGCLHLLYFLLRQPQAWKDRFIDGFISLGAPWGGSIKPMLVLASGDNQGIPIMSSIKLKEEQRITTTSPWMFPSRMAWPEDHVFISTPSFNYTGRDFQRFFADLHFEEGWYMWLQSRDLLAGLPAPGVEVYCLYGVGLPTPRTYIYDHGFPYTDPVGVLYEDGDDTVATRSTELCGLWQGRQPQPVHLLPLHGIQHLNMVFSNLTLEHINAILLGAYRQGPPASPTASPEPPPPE
In short: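 Substrate SUVs of EPC or POPC with 14C-cholesterol (20:1 molar ratio), in 10 mM Tris, 0.14 M NaCl, 1 mM EDTA, pH 7.4, were preincubated with peptide or equal mass of plasma ApoA-I. Reaction started with human plasma LCAT; activation was measured as cholesterol-to-ester conversion relative to ApoA-I (100%).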

[3] = Circular dichroism helicity determination; type: physicochemical; details: percent helicity; for He (%) TFE: 5 μM peptide, 90% vol TFE; for He (%) TFE / He (%) SUVs: 37° C.; for He (%) free: unbound peptide 5 μM in 5 mM phosphate buffer, pH 7.4, 37° C.; for He (%) SUVs: peptide-SUV complexes (20:1 EPC:Chol., Ri=30 and Ri=50); for He (%) mics: peptide-micelle complexes, Ri=100, 37° C.
In short: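 Far-UV CD (190–260 nm) at 37° C on 5 μM peptide in 5 mM phosphate pH 7.4, free, with EPC:Chol 20:1 SUVs (Ri 30 or 50), lysophosphatidylcholine micelles (Ri 100) or 90% TFE. Spectra converted to molar ellipticity per residue; helicity from 222 nm ellipticity or CONTIN fitting to reference spectra, ±5%.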

| λmax (nm) [1] | ACTIVITY (%) LCAT [2] | He (%) TFE [3] | He (%) free [3] | He (%) SUVs [3] | He (%) mics [3] | Molecule |
| --- | --- | --- | --- | --- | --- | --- |
| 350 nm |  |  |  |  |  | CC(=O)N[C@@H](Cc1c[nH]c2ccccc12)C(N)=O [NATA, N-acetyltryptophanylamide, reference compound] |
|  | 5% | 81% | 52% | 63% | 85% | CC(C)C[C@@H](NC(=O)[C@@H](C)NC(=O)[C@@H](CCC(=O)O)NC(=O)[C@@H](CC(C)C)NC(=O)C(C)(C)NC(=O)[C@@H](CCC(=O)O)NC(=O)[C@@H](CC(N)=O)NC(=O)[C@@H](CC(C)C)NC(=O)[C@@H](CC(C)C)NC(=O)[C@@H](CCC(=O)O)NC(=O)[C@@H](CCCNC(=N)N)NC(=O)[C@@H](Cc1ccccc1)NC(=O)[C@@H](CC(C)C)NC(=O)[C@@H](CC(=O)O)NC(=O)[C@@H](CC(C)C)NC(=O)[C@H](NC(=O)[C@H]1CCCN1)C(C)C)C(=O)N[C@H](CCCCN)C(=O)N[C@H](CCC(N)=O)C(=O)N[C@H](CCCCN)C(=O)N[C@H](CC(C)C)C(=O)N[C@H](CCCCN)C(=O)O [compound 96, pvldlfrellneXlealkqklk] (H-[dP][dV][dL][dD][dL][dF][dR][dE][dL][dL][dN][dE][Aib][dL][dE][dA][dL][dK][dQ][dK][dL][dK]-OH) |
|  | 29% | 49% | 25% | 21% | 49% | CC(C)C[C@H](NC(=O)[C@H](CCCCN)NC(=O)[C@H](CCC(N)=O)NC(=O)[C@H](CCCCN)NC(=O)[C@H](Cc1c[nH]c2ccccc12)NC(=O)[C@H](C)NC(=O)[C@H](CCC(=O)O)NC(=O)[C@H](CC(C)C)NC(=O)C(C)(C)NC(=O)[C@H](CCC(=O)O)NC(=O)[C@H](CC(N)=O)NC(=O)[C@H](CC(C)C)NC(=O)[C@H](CC(C)C)NC(=O)[C@H](CCC(=O)O)NC(=O)[C@H](CCCNC(=N)N)NC(=O)[C@H](Cc1ccccc1)NC(=O)[C@H](CC(C)C)NC(=O)[C@H](CC(=O)O)NC(=O)[C@H](CC(C)C)NC(=O)[C@@H](NC(=O)[C@@H]1CCCN1)C(C)C)C(=O)N[C@@H](CCCCN)C(=O)O [compound 38, PVLDLFRELLNEXLEAWKQKLK] (H-PVLDLFRELLNE[Aib]LEAWKQKLK-OH) |
|  | 75% | 80% | 10% | 23% | 76% | PVLELFENLLERLGDALQKKLK [peptide 148] |
|  | 83% | 73% | 77% | 85% | 89% | PVLDLFKELLNELLEALKQKLK [peptide 7] |
|  | 29% | 73% | 65% | 76% | 75% | PVLDLFREWLNELLEALKQKLK [compound 37] |
|  | 4% |  | 38% | 70% | 77% | DWLKAFYDKVFEKFKEFF [peptide 245, reference compound] |
|  | 80% | 99% | 57% | 70% | 93% | CC(C)C[C@H](NC(=O)[C@H](C)NC(=O)[C@H](CCC(=O)O)NC(=O)[C@H](CC(C)C)NC(=O)C(C)(C)NC(=O)[C@H](CCC(=O)O)NC(=O)[C@H](CC(N)=O)NC(=O)[C@H](CC(C)C)NC(=O)[C@H](CC(C)C)NC(=O)[C@H](CCC(=O)O)NC(=O)[C@H](CCCNC(=N)N)NC(=O)[C@H](Cc1ccccc1)NC(=O)[C@H](CC(C)C)NC(=O)[C@H](CC(=O)O)NC(=O)[C@H](CC(C)C)NC(=O)[C@@H](NC(=O)[C@@H]1CCCN1)C(C)C)C(=O)N[C@@H](CCCCN)C(=O)N[C@@H](CCC(N)=O)C(=O)N[C@@H](CCCCN)C(=O)N[C@@H](CC(C)C)C(=O)N[C@@H](CCCCN)C(=O)O [compound 6, PVLDLFRELLNEXLEALKQKLK] (H-PVLDLFRELLNE[Aib]LEALKQKLK-OH) |
|  | 120% | 69% | 77% | 81% | 85% | CC(C)C[C@H](NC(=O)[C@H](CCCCN)NC(=O)[C@H](CCC(N)=O)NC(=O)[C@H](CCCCN)NC(=O)[C@H](CC(C)C)NC(=O)[C@H](Cc1cccc2ccccc12)NC(=O)[C@H](CCC(=O)O)NC(=O)[C@H](CC(C)C)NC(=O)[C@H](CC(C)C)NC(=O)[C@H](CCC(=O)O)NC(=O)[C@H](CC(N)=O)NC(=O)[C@H](CC(C)C)NC(=O)[C@H](CC(C)C)NC(=O)[C@H](CCC(=O)O)NC(=O)[C@H](CCCNC(=N)N)NC(=O)[C@H](Cc1ccccc1)NC(=O)[C@H](CC(C)C)NC(=O)[C@H](CC(=O)O)NC(=O)[C@H](CC(C)C)NC(=O)[C@@H](NC(=O)[C@@H]1CCCN1)C(C)C)C(=O)N[C@@H](CCCCN)C(=O)O [peptide 1, PVLDLFRELLNELLEZLKQKLK] (H-PVLDLFRELLNELLE[1Nal]LKQKLK-OH) |

| Molecule | λmax (nm) [1] | ACTIVITY (%) LCAT [2] | He (%) TFE [3] | He (%) free [3] | He (%) SUVs [3] | He (%) mics [3] |
| --- | --- | --- | --- | --- | --- | --- |
| GVLELFENLLERLLDALQKKLK [peptide 145] |  | 100% | 58% | 55% |  | 51% |
| Ac-PVLDLFKELLEELKQKLK-NH2 [compound 192] |  | 100% | 56% | 36% |  |  |
| CC(C)C[C@H](NC(=O)[C@H](C)NC(=O)[C@H](CC(=O)O)NC(=O)[C@H](CC(C)C)NC(=O)[C@H](CC(C)C)NC(=O)[C@H](CCCNC(=N)N)NC(=O)[C@H](CCC(=O)O)NC(=O)[C@H](CC(C)C)NC(=O)[C@H](CC(C)C)NC(=O)[C@H](CC(N)=O)NC(=O)[C@H](CCC(=O)O)NC(=O)[C@H](Cc1ccccc1)NC(=O)[C@H](CC(C)C)NC(=O)[C@H](CCC(=O)O)NC(=O)[C@H](CC(C)C)NC(=O)[C@@H](NC(=O)[C@H]1CCCN1)C(C)C)C(=O)N[C@@H](CCC(N)=O)C(=O)N[C@@H](CCCCN)C(=O)N[C@@H](CCCCN)C(=O)N[C@@H](CC(C)C)C(=O)N[C@@H](CCCCN)C(=O)O [peptide 144] (H-[dP]VLELFENLLERLLDALQKKLK-OH) |  | 111% | 95% | 89% |  | 88% |

— US7273848B2, “Apolipoprotein A-I agonists and their use to treat dyslipidemic disorders” (priority 1997, dated 2007)
